# Results reported in US9863956B2, “Differentiation of isobaric amino acids and other species” (Agency for Science, Technology and Research, priority 2009, dated 2018).
# Where no end group is shown, it is not given here.
# Legend:
# bCAII = bCAII (Bos taurus, UniProt P00921); test: SPR affinity measurement (Biacore 3000) of peptide on immobilized bCAII; format: binding, bovine
# Experimental: Affinity measurements were performed using a Biacore 3000 system (GE Heathcare) equipped with research grade CM5 sensor chips (GE Healthcare). The CM5 sensor chip was preconditioned after docking and priming the instrument with HBS-EP (GE Heathcare) buffer. Flow cell 1 (or 3) was used as a reference to subtract nonspecific binding, drift, and bulk refractive index. Using a flow rate of 20 microliters/min, the sensor chip's four flow cells were activated at 25° C. with a 7 min injection of amine-coupling kit (GE Healthcare) (1:1 mixture of 0.4 M EDC and 0.1 M NHS). To create a bCAII surface, 1 mg of bCAII was dissolved in 1 mL of 10 mM sodium acetate (pH 5.0) and injected across flow cell 2 only. Approximately 1000 response units (RU) of bCAII were immobilized onto this surface. Finally, 1.0 M ethanolamine (pH 8.5) was injected across the four flow cells for 4 min to deactivate the surfaces. After bCAII immobilization, the instrument was primed three times using running buffer (1×PBS+3% DMSO). HIRYKR (SEQ ID NO: 2) peptide (26.13 micrograms) was dissolved in 18 microliters DMSO and diluted with HBS-EP buffer to produce a 50 micromolar peptide stock solution. The peptide stock solution was serially diluted by a factor of 2 to a concentration of 390 nM. […]
# [1] = molecular target: bovine carbonic anhydrase (bCAII) (Bos taurus, UniProt P00921); test: OBOC hexamer peptide library screening with Alexa Fluor 647 labeled bCAII, COPAS Plus bead sorting; format: binding; details: 50 nM dye labeled bCAII, 15 hr at 25° C.; on-bead peptide
# Experimental: Alexa Fluor® 647 protein labeling kit (A20173, Invitrogen) was chosen as the reactive dye for labeling bovine carbonic anhydrase (bCAII) following the supplier's protocol. Briefly, 2 mg/mL of bCAII in 0.1 M sodium bicarbonate (pH ˜8.3) was transferred 0.5 mL of bCAII solution into the vial of the reactive dye, and the vial was capped and inverted several times to dissolve the dye completely. The reaction mixture was stirred for 1 hr at room temperature under dark conditions. The Alexa Fluro® 647 labeled bCAII (bCAII-A647) was purified from the mixture using the size exclusion purification resin in the kit. Purified and labeled bCAII-A647 was characterized by NanoDrop (Thermo Scientific) and gel documentation (Typhoon) after SDS-PAGE. […]
# Hit beads were sorted into cone-shaped wells of a 96 well plate using a COPAS Plus. […] The gating region was defined for beads based on their time-of-flight (TOF) and red fluorescence, and the sorting region was chosen for selecting beads based on their time-of-flight (TOF) and uniformity red fluorescence after incubation with bCAII-A647. […] The TOF, red fluorescence, and red fluorescence peak height of the beads were detected using a red diode laser (λ=635 nm). Due to the auto-fluorescence of the beads, the argon ion laser was intentionally turned off to minimize bleed-through effect. […]
# bovine carbonic anhydrase (bCAII), sequence (P00921 whole entry): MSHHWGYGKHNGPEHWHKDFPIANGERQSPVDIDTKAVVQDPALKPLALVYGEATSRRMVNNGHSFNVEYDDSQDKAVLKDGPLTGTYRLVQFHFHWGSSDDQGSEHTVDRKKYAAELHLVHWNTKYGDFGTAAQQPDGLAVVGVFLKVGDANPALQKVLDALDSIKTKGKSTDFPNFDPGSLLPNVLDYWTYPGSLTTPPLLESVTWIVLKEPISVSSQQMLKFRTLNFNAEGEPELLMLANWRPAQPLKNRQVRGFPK
# bCAII, sequence (P00921 whole entry): as above
substance,measurement,setting,value
"HIRYKR [hit hexamer peptide from OBOC library screened against bCAII, re-synthesized from Fmoc D-amino acids with a carboxamide C-terminus]",dissociation constant (KD),"bCAII; 1:1 Langmuir binding fit, 25° C., peptide 50 micromolar to 390 nM",micromolar range
same,binding affinity to the protein bCAII,bCAII; conclusion in words,significant binding affinity
same,hit in library screening against bCAII (bead fluorescence),[1],hit peptide from the brightest bead
"IQHKRF (not fully specified (residues 1, 2, 3, 4, 5, 6, C-terminus); also: D-amino acids, which residues not given here)",hit in library screening against bCAII (bead fluorescence),[1],hit peptide
